According to US9266883B2, “Ring-fused bicyclic pyridyl derivatives as FGFR4 inhibitors” (Novartis AG, priority 2013, dated 2016):
Structures can show the parent of a compound that is named as a salt.

What was measured:
FGFR2 (406-821) = FGFR2 (406-821) (Homo sapiens (Human), UniProt P21802); assay: In vitro biochemical assay for FGFR2
Tel-FGFR4 = Tel-FGFR4 (Homo sapiens (Human), UniProt P22455); assay: In vitro cellular kinase assay for FGFR4 (BaF3-Tel-FGFR4 cells, MSD capture ELISA of tyrosine phosphorylation); assay type: cell-based; conditions: BaF3-Tel-FGFR4 cells, 1 hour incubation; read-out: Cellular BaF3 FGFR4 IC50
Chain of Tel-FGFR4 (P22455 other isoform, or with tags, fused parts or gaps): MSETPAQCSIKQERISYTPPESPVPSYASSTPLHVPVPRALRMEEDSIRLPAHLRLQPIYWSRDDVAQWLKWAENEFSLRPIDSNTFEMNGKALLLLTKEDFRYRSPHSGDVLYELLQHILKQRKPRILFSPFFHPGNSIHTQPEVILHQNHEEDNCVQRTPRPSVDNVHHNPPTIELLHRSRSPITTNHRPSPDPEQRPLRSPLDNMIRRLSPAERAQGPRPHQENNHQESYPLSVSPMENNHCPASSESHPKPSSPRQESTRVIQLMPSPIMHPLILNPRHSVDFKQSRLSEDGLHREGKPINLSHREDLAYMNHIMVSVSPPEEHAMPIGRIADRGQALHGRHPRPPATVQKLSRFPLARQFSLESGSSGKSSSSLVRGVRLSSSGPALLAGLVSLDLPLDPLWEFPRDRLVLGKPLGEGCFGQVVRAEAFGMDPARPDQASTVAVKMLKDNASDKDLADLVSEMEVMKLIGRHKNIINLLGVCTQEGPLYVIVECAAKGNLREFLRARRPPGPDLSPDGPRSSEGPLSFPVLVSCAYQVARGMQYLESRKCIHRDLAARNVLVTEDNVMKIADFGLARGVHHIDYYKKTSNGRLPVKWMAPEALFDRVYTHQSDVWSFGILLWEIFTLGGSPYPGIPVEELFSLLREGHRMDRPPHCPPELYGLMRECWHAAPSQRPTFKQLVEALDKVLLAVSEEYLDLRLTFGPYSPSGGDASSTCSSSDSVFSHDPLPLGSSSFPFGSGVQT

[1] = molecular target: FGFR4 (GST-FGFR4(388-802)) (Homo sapiens (Human), UniProt P22455); assay: In-vitro biochemical kinase assay for FGFR4 (Caliper microfluidic mobility shift); conditions: read-out: Biochemical FGFR4 IC50
Chain of FGFR4 (GST-FGFR4(388-802)) (P22455 388-802): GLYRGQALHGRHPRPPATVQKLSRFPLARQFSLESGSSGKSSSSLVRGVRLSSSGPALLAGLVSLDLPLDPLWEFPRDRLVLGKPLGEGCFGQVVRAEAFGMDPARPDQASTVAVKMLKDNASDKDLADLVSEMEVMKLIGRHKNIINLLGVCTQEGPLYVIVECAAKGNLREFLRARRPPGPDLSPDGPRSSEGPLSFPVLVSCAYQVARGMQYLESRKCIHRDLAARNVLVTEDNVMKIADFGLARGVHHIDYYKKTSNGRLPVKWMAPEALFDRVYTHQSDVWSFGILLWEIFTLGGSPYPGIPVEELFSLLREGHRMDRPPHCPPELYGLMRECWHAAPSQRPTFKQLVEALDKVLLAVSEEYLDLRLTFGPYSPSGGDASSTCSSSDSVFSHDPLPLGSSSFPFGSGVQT

FGFR1 (407-822) = FGFR1 (407-822) (Homo sapiens (Human), UniProt P11362); assay: In vitro biochemical assay for FGFR1
Chain of FGFR1 (407-822) (P11362 407-822): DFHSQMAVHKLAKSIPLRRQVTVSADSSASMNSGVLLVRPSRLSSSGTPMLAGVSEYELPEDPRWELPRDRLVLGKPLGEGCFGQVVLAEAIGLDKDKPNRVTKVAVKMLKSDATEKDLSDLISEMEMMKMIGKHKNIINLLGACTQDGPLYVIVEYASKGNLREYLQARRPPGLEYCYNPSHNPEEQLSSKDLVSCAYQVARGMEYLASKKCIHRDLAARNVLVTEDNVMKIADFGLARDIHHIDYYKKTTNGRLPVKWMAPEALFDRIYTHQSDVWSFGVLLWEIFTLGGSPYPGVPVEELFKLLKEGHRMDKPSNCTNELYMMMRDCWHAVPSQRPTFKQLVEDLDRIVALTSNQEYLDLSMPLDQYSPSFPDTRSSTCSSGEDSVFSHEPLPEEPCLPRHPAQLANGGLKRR

FGFR3 (411-806) = FGFR3 (411-806) (Homo sapiens (Human), UniProt P22607); assay: In vitro biochemical assay for FGFR3
Chain of FGFR3 (411-806) (P22607 411-806): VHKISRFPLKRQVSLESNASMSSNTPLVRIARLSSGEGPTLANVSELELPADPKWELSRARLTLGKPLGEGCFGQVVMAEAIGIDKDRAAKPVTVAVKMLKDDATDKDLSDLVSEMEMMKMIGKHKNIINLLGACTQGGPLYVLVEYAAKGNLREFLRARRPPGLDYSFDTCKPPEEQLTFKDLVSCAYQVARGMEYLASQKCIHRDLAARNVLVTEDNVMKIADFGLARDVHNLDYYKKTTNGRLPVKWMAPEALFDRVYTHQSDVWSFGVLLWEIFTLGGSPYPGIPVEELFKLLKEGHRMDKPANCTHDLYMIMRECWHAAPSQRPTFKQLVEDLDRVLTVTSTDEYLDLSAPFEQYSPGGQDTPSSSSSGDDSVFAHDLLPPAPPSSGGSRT

[2] = system: HuH-7 hepatocellular carcinoma cells; assay: Methylene Blue Staining Proliferation Assay (MBS); conditions: Homo sapiens, Huh-7, 72 h, read-out: HUH7 proliferation (nM) MBS
[3] = system: HuH-7 hepatocellular carcinoma cells; assay: CellTiter Glo (CTG) Assay; conditions: Homo sapiens, Huh-7, 72 h, read-out: HUH7 proliferation (nM) CTG

Chain of FGFR2 (406-821) (P21802 406-821): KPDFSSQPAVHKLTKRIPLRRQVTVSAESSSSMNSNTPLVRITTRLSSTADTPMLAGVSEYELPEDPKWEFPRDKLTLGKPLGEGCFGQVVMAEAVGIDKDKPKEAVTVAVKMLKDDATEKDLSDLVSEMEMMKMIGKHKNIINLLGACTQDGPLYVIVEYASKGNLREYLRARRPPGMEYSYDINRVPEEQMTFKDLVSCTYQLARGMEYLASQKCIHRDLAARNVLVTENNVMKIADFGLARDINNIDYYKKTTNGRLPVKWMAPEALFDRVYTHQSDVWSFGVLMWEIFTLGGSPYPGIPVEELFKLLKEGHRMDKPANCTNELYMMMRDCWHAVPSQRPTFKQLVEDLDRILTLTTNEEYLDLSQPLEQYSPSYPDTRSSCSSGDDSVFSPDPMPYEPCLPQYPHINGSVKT

Work on N#Cc1cnc(NC(=O)N2CCCc3cc(CO)c(C=O)nc32)cc1OC1CN2CCC1CC2 (racemic) [Example 82, N-(5-cyano-4-(quinuclidin-3-yloxy)pyridin-2-yl)-7-formyl-6-(hydroxymethyl)-3,4-dihydro-1,8-naphthyridine-1(2H)-carboxamide] yielded an IC50 (FGFR2 (406-821)) greater than 10000 nM, an IC50 (Tel-FGFR4) of 83.5 nM and an IC50 [1] of 56 nM. The IC50 (FGFR1 (407-822)) was greater than 10000 nM, the IC50 (FGFR3 (411-806)) was greater than 10000 nM and the IC50 [2] was 2010 nM.

Work on CN1CCOC(CNc2cc(NC(=O)N3CCCc4cc(C(F)F)c(C=O)nc43)ncc2C#N)C1 (racemic) [Example 161, N-(5-cyano-4-(((4-methylmorpholin-2-yl)methyl)amino)pyridin-2-yl)-6-(difluoromethyl)-7-formyl-3,4-dihydro-1,8-naphthyridine-1(2H)-carboxamide] yielded an IC50 (FGFR2 (406-821)) greater than 10000 nM, an IC50 (Tel-FGFR4) of 17.3 nM and an IC50 [1] of 2.5 nM. For the same molecule, the IC50 [3] was 200 nM, the IC50 (FGFR1 (407-822)) was greater than 10000 nM and the IC50 (FGFR3 (411-806)) was greater than 10000 nM. For the same molecule, the IC50 [2] was 126 nM.

O=Cc1ccc2c(n1)N(C(=O)Nc1ccc(Cl)cn1)CCC2 [Example 4, N-(5-chloropyridin-2-yl)-7-formyl-3,4-dihydro-1,8-naphthyridine-1(2H)-carboxamide] gave an IC50 [2] greater than 3000 nM.

With CN1CCC(COc2cc(NC(=O)N3CCCc4cc(CO)c(C=O)nc43)ncc2C#N)CC1 [Example 78, N-(5-cyano-4-((1-methylpiperidin-4-yl)methoxy)pyridin-2-yl)-7-formyl-6-(hydroxymethyl)-3,4-dihydro-1,8-naphthyridine-1(2H)-carboxamide] the IC50 (FGFR2 (406-821)) was greater than 10000 nM, the IC50 (Tel-FGFR4) was 17 nM and the IC50 [1] was 20 nM. It also gave an IC50 (FGFR1 (407-822)) greater than 10000 nM, an IC50 (FGFR3 (411-806)) greater than 10000 nM and an IC50 [2] of 279 nM.

Molecule COCCNc1cc(NC(=O)N2CCCc3cc(CN4CCN(C)CC4=O)c(C=O)nc32)ncc1C#N [Example 83, N-(5-cyano-4-((2-methoxyethyl)amino)pyridin-2-yl)-7-formyl-6-((4-methyl-2-oxopiperazin-1-yl)methyl)-3,4-dihydro-1,8-naphthyridine-1(2H)-carboxamide] has an IC50 [3] of 60.9 nM and an IC50 [2] of 12 nM.

In the case of COCCNc1cc(NC(=O)N2CCCc3cc(CO)c(C=O)nc32)ncc1C(F)(F)F [Example 84, 7-formyl-6-(hydroxymethyl)-N-(4-((2-methoxyethyl)amino)-5-(trifluoromethyl)pyridin-2-yl)-3,4-dihydro-1,8-naphthyridine-1(2H)-carboxamide], the IC50 (FGFR2 (406-821)) is reported as greater than 10000 nM, the IC50 (Tel-FGFR4) is reported as 33.5 nM and the IC50 [1] is reported as 21 nM. It also gave an IC50 [3] of 944 nM, an IC50 (FGFR1 (407-822)) greater than 10000 nM and an IC50 (FGFR3 (411-806)) greater than 10000 nM. It also gave an IC50 [2] of 929 nM.

With COCCNc1cc(NC(=O)N2CCCc3cc(CN4CCNCC4=O)c(C=O)nc32)ncc1C#N [Example 110, N-(5-cyano-4-((2-methoxyethyl)amino)pyridin-2-yl)-7-formyl-6-((2-oxopiperazin-1-yl)methyl)-3,4-dihydro-1,8-naphthyridine-1(2H)-carboxamide hydrochloride] the IC50 (FGFR2 (406-821)) was greater than 10000 nM, the IC50 (Tel-FGFR4) was 8.6 nM and the IC50 [1] was 1.4 nM. It also gave an IC50 [3] of 59.7 nM, an IC50 (FGFR1 (407-822)) greater than 10000 nM and an IC50 (FGFR3 (411-806)) greater than 10000 nM. It also gave an IC50 [2] of 46 nM.

With COC[C@@H](C)Oc1cc(NC(=O)N2CCCc3cc(CN4C(=O)OC[C@@H]4C)c(C=O)nc32)ncc1C#N [Example 115, N-(5-cyano-4-(((R)-1-methoxypropan-2-yl)oxy)pyridin-2-yl)-7-formyl-6-(((S)-4-methyl-2-oxooxazolidin-3-yl)methyl)-3,4-dihydro-1,8-naphthyridine-1(2H)-carboxamide] the IC50 (Tel-FGFR4) was 3.9 nM, the IC50 [1] was 0.2 nM and the IC50 [3] was 17.5 nM. It also gave an IC50 [2] of 29 nM.

CC(=O)N1CCN(Cc2cc3c(nc2C=O)N(C(=O)Nc2cc(OC(C)C)c(C#N)cn2)CCC3)CC1 [Example 134, 6-((4-acetylpiperazin-1-yl)methyl)-N-(5-cyano-4-isopropoxypyridin-2-yl)-7-formyl-3,4-dihydro-1,8-naphthyridine-1(2H)-carboxamide] was tested, and the IC50 (FGFR2 (406-821)) was greater than 10000 nM, the IC50 (Tel-FGFR4) was 20.5 nM and the IC50 [1] was 1.9 nM. It also gave an IC50 [3] of 450 nM, an IC50 (FGFR1 (407-822)) greater than 10000 nM and an IC50 (FGFR3 (411-806)) greater than 10000 nM.

CC(C)Oc1cc(NC(=O)N2CCCc3cc(CN(C)C(=O)CO)c(C=O)nc32)ncc1C#N [Example 141, N-(5-cyano-4-isopropoxypyridin-2-yl)-7-formyl-6-((2-hydroxy-N-methylacetamido)methyl)-3,4-dihydro-1,8-naphthyridine-1(2H)-carboxamide] showed an IC50 (FGFR2 (406-821)) greater than 10000 nM, an IC50 (Tel-FGFR4) of 3.9 nM and an IC50 [3] of 36 nM. For the same molecule, the IC50 (FGFR1 (407-822)) was greater than 10000 nM, the IC50 (FGFR3 (411-806)) was greater than 10000 nM and the IC50 [2] was 43 nM.

COCCNc1cc(NC(=O)N2CCCc3cc(CN(CCN(C)C)C(C)=O)c(C=O)nc32)ncc1C#N [Example 143, N-(5-cyano-4-((2-methoxyethyl)amino)pyridin-2-yl)-6-((N-(2-(dimethylamino)ethyl)acetamido)methyl)-7-formyl-3,4-dihydro-1,8-naphthyridine-1(2H)-carboxamide] showed an IC50 (FGFR2 (406-821)) greater than 10000 nM, an IC50 (Tel-FGFR4) of 16.7 nM and an IC50 [1] of 2 nM. For the same molecule, the IC50 [3] was 171 nM, the IC50 (FGFR1 (407-822)) was greater than 10000 nM and the IC50 (FGFR3 (411-806)) was greater than 10000 nM. The IC50 [2] was 104 nM.

Molecule COCCNc1cc(NC(=O)N2CCCc3cc(CN4CCSCC4=O)c(C=O)nc32)ncc1C#N [Example 149, N-(5-cyano-4-((2-methoxyethyl)amino)pyridin-2-yl)-7-formyl-6-((3-oxothiomorpholino)methyl)-3,4-dihydro-1,8-naphthyridine-1(2H)-carboxamide] has an IC50 (FGFR2 (406-821)) greater than 10000 nM, an IC50 (Tel-FGFR4) of 5.3 nM and an IC50 [1] of 0.1 nM. The IC50 [3] was 77.5 nM, the IC50 (FGFR1 (407-822)) was greater than 10000 nM and the IC50 (FGFR3 (411-806)) was greater than 10000 nM.

For COCCNc1cc(NC(=O)N2CCCc3cc(CN4CCS(=O)(=O)CC4=O)c(C=O)nc32)ncc1C#N [Example 150, N-(5-cyano-4-((2-methoxyethyl)amino)pyridin-2-yl)-6-((1,1-dioxido-3-oxothiomorpholino)methyl)-7-formyl-3,4-dihydro-1,8-naphthyridine-1(2H)-carboxamide], the IC50 (FGFR2 (406-821)) was greater than 10000 nM, the IC50 (Tel-FGFR4) was 5.8 nM and the IC50 [1] was 1.2 nM. For the same molecule, the IC50 [3] was 45.5 nM, the IC50 (FGFR1 (407-822)) was greater than 10000 nM and the IC50 (FGFR3 (411-806)) was greater than 10000 nM.

For CN1CCN(Cc2cc3c(nc2C=O)N(C(=O)Nc2cc(NCCO)c(C#N)cn2)CCC3)C(=O)C1 [Example 197, N-(5-cyano-4-((2-hydroxyethyl)amino)pyridin-2-yl)-7-formyl-6-((4-methyl-2-oxopiperazin-1-yl)methyl)-3,4-dihydro-1,8-naphthyridine-1(2H)-carboxamide], the IC50 (FGFR2 (406-821)) was greater than 10000 nM, the IC50 (Tel-FGFR4) was 19.1 nM and the IC50 [1] was 1.2 nM. For the same molecule, the IC50 [3] was 146 nM, the IC50 (FGFR1 (407-822)) was greater than 10000 nM and the IC50 (FGFR3 (411-806)) was greater than 10000 nM.

With COC[C@@H](C)Oc1cc(NC(=O)N2CCCc3cc(CN4CCN(C)CC4=O)c(C=O)nc32)ncc1C#N [Example 205, (R)-N-(5-cyano-4-((1-methoxypropan-2-yl)oxy)pyridin-2-yl)-7-formyl-6-((4-methyl-2-oxopiperazin-1-yl)methyl)-3,4-dihydro-1,8-naphthyridine-1(2H)-carboxamide] the IC50 (FGFR2 (406-821)) was greater than 10000 nM, the IC50 (FGFR1 (407-822)) was greater than 10000 nM and the IC50 (FGFR3 (411-806)) was greater than 10000 nM. It also gave an IC50 [2] of 14 nM.

CC(C)n1cnc2cnc(NC(=O)N3CCCc4cc(CN5CCN(C)CC5=O)c(C=O)nc43)cc21 [Example 216, 7-formyl-N-(1-isopropyl-1H-imidazo[4,5-c]pyridin-6-yl)-6-((4-methyl-2-oxopiperazin-1-yl)methyl)-3,4-dihydro-1,8-naphthyridine-1(2H)-carboxamide] was tested, and the IC50 (FGFR2 (406-821)) was greater than 10000 nM, the IC50 [3] was greater than 3000 nM and the IC50 (FGFR1 (407-822)) was greater than 10000 nM. It also gave an IC50 (FGFR3 (411-806)) greater than 10000 nM and an IC50 [2] greater than 1000 nM.

In the case of COCCNc1cc(NC(=O)N2c3nc(C=O)c(CN4CCN(C)CC4=O)cc3CC[C@@H]2C)ncc1C#N [Example 228, (S)-N-(5-cyano-4-((2-methoxyethyl)amino)pyridin-2-yl)-7-formyl-2-methyl-6-((4-methyl-2-oxopiperazin-1-yl)methyl)-3,4-dihydro-1,8-naphthyridine-1(2H)-carboxamide], the IC50 (FGFR2 (406-821)) is reported as greater than 10000 nM, the IC50 (Tel-FGFR4) is reported as 6.2 nM and the IC50 [1] is reported as 0.6 nM. It also gave an IC50 [3] of 62 nM, an IC50 (FGFR1 (407-822)) greater than 10000 nM and an IC50 (FGFR3 (411-806)) greater than 10000 nM.

With CN1CCN(Cc2cc3c(nc2C=O)N(C(=O)Nc2cc(NC45CC(C4)C5)c(C#N)cn2)CCC3)C(=O)C1 [Example 237, N-(4-(bicyclo[1.1.1]pentan-1-ylamino)-5-cyanopyridin-2-yl)-7-formyl-6-((4-methyl-2-oxopiperazin-1-yl)methyl)-3,4-dihydro-1,8-naphthyridine-1(2H)-carboxamide] the IC50 (FGFR2 (406-821)) was greater than 10000 nM, the IC50 (Tel-FGFR4) was 19 nM and the IC50 [1] was 1.9 nM. It also gave an IC50 [3] of 18 nM, an IC50 (FGFR1 (407-822)) greater than 10000 nM and an IC50 (FGFR3 (411-806)) greater than 10000 nM.

In the case of COCCNc1cc(NC(=O)N2CCCc3cc(-c4cnn(C)c4)c(C=O)nc32)ncc1C#N [Example 251, N-(5-cyano-4-((2-methoxyethyl)amino)pyridin-2-yl)-7-formyl-6-(1-methyl-1H-pyrazol-4-yl)-3,4-dihydro-1,8-naphthyridine-1(2H)-carboxamide], the IC50 (Tel-FGFR4) is reported as 12.9 nM, the IC50 [3] is reported as 1340 nM and the IC50 [2] is reported as 264 nM.

Molecule CC(C)Oc1cc(NC(=O)N2CCCc3cc(C4CCNCC4)c(C=O)nc32)ncc1C#N [Example 265, N-(5-cyano-4-isopropoxypyridin-2-yl)-7-formyl-6-(piperidin-4-yl)-3,4-dihydro-1,8-naphthyridine-1(2H)-carboxamide] has an IC50 (FGFR2 (406-821)) greater than 10000 nM, an IC50 (Tel-FGFR4) of 87 nM and an IC50 [1] of 3.5 nM. It also gave an IC50 [3] of 404 nM, an IC50 (FGFR1 (407-822)) greater than 10000 nM and an IC50 (FGFR3 (411-806)) greater than 10000 nM.
